Data set [1] is described as follows: PK-model estimation of oat product dose and dosing interval needed to reach plasma concentration above LLOQ. Also on record: species or system humans. The conditions noted are these: for estimated volume of liquid oats resulting in plasma concentration above LLOQ: consumption interval every 4 h; for estimated intake volume of liquid oats needed for plasma concentration above LLOQ: intake every 8 h. The procedure: A compartmental model with two absorption compartments and a plasma compartment with linear elimination for each molecule separately described better the experimental data from the single dose intake compared to a compartmental model of a single absorption compartment (Figure S3). Parameter estimation was performed using the non-linear mixed-effects approach with lognormal inter-individual variability in all three model parameters: distribution volume over bioavailability ( [drawing 1] ), absorption rate ( [drawing 2] ), elimination rate ( [drawing 3] ), (R package nlmixr2 [34]). The results were reported as population means with coefficient of variation (Table S1). The area under the curve (AUC) and Cmax were normalized (AUCnorm) for the nmol intake of each molecule. Statistical analysis was conducted with R software environment. The compounds were compared for their PK parameters within the same product and between products using repeated ANOVA approach (lme4 package) and then by pairwise comparison adjusted for post hoc Tukey-Kramer honestly significant difference. All statistical analyses were performed on log- transformed data. Based on the PK models built on the single-dose data, a linear relationship ( [drawing 4] was derived between dose and dosing interval (intake frequency, [drawing 5] ) to estimate the AVA intake needed to reach an average concentration (at steady state) that is measurable above lower limit of quantification (LLOQ). To translate the intake of AVAs from the linear relationship (Dose) to corresponding oat flake product intake, we estimated the content of AVAs in different products using reported data from the literature and assigned values, where possible. For the flakes, information in literature was available for AVA 2c, AVA 2p and AVA 2 f. Therefore, an average value for these compounds per food product was assigned while for the oat drink and for the less known AVAs; AVA 2pd and AVA 2fd, an average value based on the measured products in our laboratory was used (Table S2). In the second phase of the intervention, following a repeated dosing period of 4 days, plasma concentrations were determined over a dosing interval recorded by the individuals and were compared to their corresponding predicted values in blood. This comparison allowed for an assessment of the model’s accuracy in predicting AVAs’ behavior under repeated dosing conditions. Only experimental data above the limit of quantification were used for the comparison. Further, the data were tested for outliers with the interquartile range (IQR) approach and five observations were considered outliers and were removed.

Data set [2] is described as follows: Plasma pharmacokinetics after a single dose of liquid or solid oat product (compartmental PK model). The data set is classed as in vivo, humans. Also noted: V/F: unit not given here. Conditions: for Cmax / half-life / k el / Tmax: both sexes, oral; for Cmax / half-life / k el: human, plasma; for Cmax / half-life / k el / Tmax / ka / V/F / T1/2: single dose; for k el: elimination rate (Table 2), read-out: ke (converted); for Tmax: human plasma, derived from PK model; for V, population estimate (RSE%) / ka, population estimate (RSE%) / ke, population estimate (RSE%): Table S1 compartmental model; for ka: absorption rate (Table 2); for V/F: distribution volume over bioavailability. The source says:
A non-blinded, randomized two-way crossover study with two different oat products (solid or liquid) was designed to investigate the AVA and AVE PK after a single dose and after repeated dosing at three different doses, for respective food (Fig. 2). Since this is the first study of its kind, it is impossible to make any formal calculation of the number of subjects needed to show meaningful differences in plasma biomarker concentrations, since the variation is unknown. However, similar studies aimed for BFI discovery and validation of dose-response have typically used 5–30 subjects. We therefore considered 23 individuals as a good compromise between feasibility and possibilities to assess variation in biomarker concentrations, estimate pharmacokinetic parameters, dose response and performing modelling with good precision. A scientist not involved in the study, conducted the randomization using the RAR method (RandomizeR package) in R software environment and provided lists with allocated treatment sequences. The study was conducted in two phases. In the first phase, blood samples were drawn from 11 men and 12 women for 24 h after consumption of a single dose of either a solid or a liquid oat product on-site. Breakfast and lunch were also provided on-site. A single dose of solid (62 g of oat flakes) or liquid (196 mL of oat drink) containing individual AVAs and AVEs shown in Table 1 were consumed, respectively. Blood plasma samples were drawn for 24 h (0 h, 0.25 h, 0.5 h, 0.75 h, 1 h, 1.5 h, 2 h, 3 h, 4 h, 5 h, 6 h, 7 h, 8 h, 24 h). After the 24 h, at the second phase of the study, the corresponding product was further consumed three times per day for four days at either a low, medium, or high intake dose (98, 196 and 392 mL for liquid oats and 31, 62 and 123 g for oat flakes with corresponding contents of AVAs and AVEs (Table 1) in a Latin square design. Therefore, a total number of 8 participants (2 males and 6 females) were randomized to the low dose, 9 participants (3 males and 6 females) for medium dose and 6 participants (3males and 3 females) for the high dose. Participants consumed the provided products at home and were instructed to follow their habitual diets with restriction on the consumption of oat products. A list of relevant foods was provided as a guide. The oat flakes were pre-portioned into individual bags and could be consumed without heating, mixed with yoghurt, cottage cheese, sour milk or any liquid. Participants were instructed to consume the full amount, including the liquid or food the oats were mixed with. Liquid oat products were weighed prior consumption, and they were to be consumed without any additional food. In all cases the time of oat intake was recorded in a food journal. On the fifth day of phase II, a fasting sample was drawn. Fecal samples were collected at baseline and at the end of phase II of the intervention. Between each study period, there was a wash-out period of eight days where participants consumed their habitual diet. After the washout, participants started with a single dose and repeated dosing for the other product in the same way as for the first. The participants were instructed to avoid foods containing oats during the last three days prior to the start of the study and during the last three days of the wash-out period. Compliance was assessed based on information provided in a compliance journal during the study weeks as well as through 2-day food records. The oat products used in the study were provided to the participants. The flakes for the single dose were consumed with water ad lib and for the repeated dose they could be mixed with water, yoghurt, milk, sour milk or cottage cheese with the condition that all the amount of the oat product is consumed. The oat drink was consumed without any other product.
All blood samples were collected into EDTA-coated tubes by a trained nurse. […]

Setting [3] is: 62 g of oat flakes, solid oat product (62 g oat flakes).
[4] abbreviates: 196 mL of oat drink, liquid oat product (196 mL oat drink).

Where two headings read alike, the source gives them in different places.

One may read the Cmax as the maximum level reached in the sampled fluid or tissue. As a reminder, the half-life is the time in which the quantity being followed falls by half. In general, Tmax refers to the time at which the peak concentration occurs. Regarding `O=C(/C=C/c1ccc(O)c(O)c1)Nc1ccc(O)cc1C(=O)O` [AVA 2c], in data set [1], the “estimated volume of liquid oats resulting in plasma concentration above LLOQ” value is on record as “about 30 mL” and the “estimated intake volume of liquid oats needed for plasma concentration above LLOQ” value is listed as 65 mL. In data set [2] (62 g of oat flakes, solid), the peak level (Cmax) was 4.91 ± 0.52 nM, the half-life is 2.13 ± 0.16 h and the k el was 9.17e-05 s⁻¹. Further, in data set [2] (196 mL of oat drink, liquid), the highest level (Cmax) was 1.16 ± 0.12 nM, the half-life was 1.58 ± 0.12 h and the k el is 0.000122 s⁻¹. The Tmax in data set [2] (setting [3]) was 1.37 ± 0.06 h. Moreover, the Tmax in data set [2] (setting [4]) came out at 0.73 ± 0.03 h. In data set [2] (liquid), the “V, population estimate (RSE%)” value is 500 (19) L; the “ka, population estimate (RSE%)” value is given as 5.9 (18) 1/h; the “ke, population estimate (RSE%)” value is listed as 0.43 (17) 1/h; the ka was 6.0 ± 0.3^1 1/h. Also, the V/F in data set [2] (liquid) was 430 ± 42^2. In data set [2] (solid), the “V, population estimate (RSE%)” value was 720 (22) L; the “ka, population estimate (RSE%)” value is 2.8 (10) 1/h; the “ke, population estimate (RSE%)” value was 0.31 (17) 1/h; the ka is 2.8 ± 0.16 h⁻¹. For the same molecule, the V/F in data set [2] (solid) was 698 ± 71.

Take `O=C(/C=C/c1ccc(O)cc1)Nc1ccc(O)cc1C(=O)O` [AVA 2p]: in data set [1], the “estimated volume of liquid oats resulting in plasma concentration above LLOQ” value is “about 30 mL” and the “estimated intake volume of liquid oats needed for plasma concentration above LLOQ” value is 65 mL. Further, in data set [2] (62 g of oat flakes, solid), the Cmax turned out to be 20 ± 2.12 nM, the half-life is 1.42 ± 0.11 h and the k el was 0.000136 s⁻¹. In data set [2] (196 mL of oat drink, liquid), the Cmax was determined as 4.94 ± 0.5 nM, the half-life is 1.3 h and the k el is 0.000144 s⁻¹. Further, the Tmax in data set [2] (setting [3]) came to 1.91 ± 0.08 h. Besides, the time to peak (Tmax) in data set [2] (setting [4]) was 1.21 ± 0.05 h. In addition, in data set [2] (liquid), the “V, population estimate (RSE%)” value is on record as 113 (16) L; the “ka, population estimate (RSE%)” value is on record as 2.8 (9) 1/h; the “ke, population estimate (RSE%)” value is listed as 0.52 (10) 1/h; the T1/2 is reported as 1.33 ± 0.10 h. In addition, in data set [2] (liquid), the ka is given as 2.8 ± 0.2^1 1/h and the V/F is 111 ± 11^1. In data set [2] (solid), the “V, population estimate (RSE%)” value is 220 (22) L; the “ka, population estimate (RSE%)” value was 1.6 (10) 1/h; the “ke, population estimate (RSE%)” value is given as 0.44 (17) 1/h; the ka was 1.50 ± 0.08 h⁻¹. In addition, in data set [2] (solid), the V/F is reported as 250 ± 26.

In the case of `COc1cc(/C=C/C(=O)Nc2ccc(O)cc2C(=O)O)ccc1O` [AVA 2f], the “average amount of oat flakes needed to reach measurable plasma levels (above LLOQ)” value in data set [1] (oat flakes consumed every 4 h) is 235 g. Further, the “amount of oat flakes needed to reach measurable plasma levels (above LLOQ)” value in data set [1] (oat flakes consumed every 8 h) is reported as 470 g. Further, in data set [2] (62 g of oat flakes, solid), the peak level (Cmax) was 2.1 ± 0.22 nM, the half-life is 2.28 ± 0.18 h and the k el is 8.33e-05 s⁻¹. Besides, in data set [2] (196 mL of oat drink, liquid), the Cmax stood at 0.69 ± 0.07 nM, the half-life was 3.2 h and the k el was 6.11e-05 s⁻¹. For the same molecule, the time to peak (Tmax) in data set [2] (setting [3]) came to 1.11 ± 0.05 h. For the same molecule, the Tmax in data set [2] (setting [4]) turned out to be 0.98 ± 0.04 h. Moreover, in data set [2] (liquid), the “V, population estimate (RSE%)” value was 1600 (34) L; the “ka, population estimate (RSE%)” value was 4.8 (3) 1/h; the T1/2 is on record as 3.19 ± 0.25^2 h; the ka was 5.0 ± 0.3^2 1/h. Also, in data set [2] (liquid), the V/F is on record as 1641 ± 168^2. For the same molecule, in data set [2] (solid), the “V, population estimate (RSE%)” value is listed as 2600 (5) L; the “ka, population estimate (RSE%)” value was 3.8 (26) 1/h; the ka stood at 3.8 ± 0.21 h⁻¹; the V/F worked out at 2561 ± 262.

The record behind these values is article PMC12418703, “Avenanthramides and avenacosides as biomarkers of oat intake: a pharmacokinetic study of solid and liquid oat consumption under single and repeated dose conditions” (Nutrition Journal, 2025).
